# According to patent publication US20240189279A1, “IMMUNOMODULATORY COMPOSITIONS AND METHODS OF USE THEREOF” (THE TEXAS A&M UNIVERSITY SYSTEM, priority 2022, published 2024):
# “Also recorded” adds a separate entry of the source.
# Experiments:
# [1] = system: inflammatory cytokines in liver tissue; assay: Liver cytokine measurements (bead-based 13-cytokine panel) in WD mice; type: in vivo, mice (male B6 129SF1/J); details: week 16
# Excerpt: Animal experiments. Male B6 129SF1/J mice at 6 weeks of age were obtained from Jackson Laboratories (Bar Harbor, ME). Mice were acclimatized to the animal facility for one week. At the start of the experiment, mice were randomly divided into four groups (n=10 for each group). Three of the four groups were fed ad libitum a Western diet (WD) with 40% Kcal from fat and containing 0.15% cholesterol (D12079B, Research Diets) and a sugar water (SW) solution (23.1 g/L d-fructose+18.9 g/L d-glucose) as previously described (DIAMOND model (15)). After 8 weeks, the three groups of WD-fed mice were randomly selected for treatment with vehicle (WD group) or low (WD-50 group) or high dose (WD-100 group) of […]. The WD group was fed WD and drank sugar water. The WD-50 and WD-100 groups were fed WD and drank sugar water containing, respectively, 50 or 100 mg […] per kg body weight. The treatments were continued for another 8 weeks. Water bottles containing SW and […] or only SW were changed every other day. […] The supernatant was transferred into a new tube and the total protein concentration was measured with the BCA protein assay (Thermo Fisher Scientific, Waltham, MA). A panel of 13 cytokines was quantified with a bead-based ELISA kit (BioLegend, San Diego, CA) following the manufacturer's protocol. […]
# liver bile acids = assay: Liver bile acid analysis (targeted LC-MS) in WD mice; type: in vivo, mice (male B6 129SF1/J)
# Excerpt: Animal experiments. Male B6 129SF1/J mice at 6 weeks of age were obtained from Jackson Laboratories (Bar Harbor, ME). Mice were acclimatized to the animal facility for one week. At the start of the experiment, mice were randomly divided into four groups (n=10 for each group). Three of the four groups were fed ad libitum a Western diet (WD) with 40% Kcal from fat and containing 0.15% cholesterol (D12079B, Research Diets) and a sugar water (SW) solution (23.1 g/L d-fructose+18.9 g/L d-glucose) as previously described (DIAMOND model (15)). After 8 weeks, the three groups of WD-fed mice were randomly selected for treatment with vehicle (WD group) or low (WD-50 group) or high dose (WD-100 group) of […]. The WD group was fed WD and drank sugar water. The WD-50 and WD-100 groups were fed WD and drank sugar water containing, respectively, 50 or 100 mg […] per kg body weight. The treatments were continued for another 8 weeks. Water bottles containing SW and […] or only SW were changed every other day. A fourth group of mice was fed a low-fat control diet (D12450B, Research Diets) and normal water for 16 weeks (CN group) (FIG. 9A). FIG. 9A presents the study design. […] The supernatant was transferred into a new sample tube and analyzed by LC-MS. […] The calculated bile acid concentrations were normalized to the level of spiked internal standard for each sample.
smiles,measurement,setting,value
"O=C([O-])Cc1c[nH]c2ccccc12.[Na+] [I3A, Indole-3-acetate sodium salt]",liver IL-10,[1]; I3A treated vs WD,downregulated this cytokine
same,"expression of pro-inflammatory cytokines in liver (panel, TNFα, IL-6, Mcp-1 etc.)","[1]; WD-50 and WD-100 vs WD, sodium salt","dose-dependently attenuated the production of type 1, 2 and 3 cytokines; also recorded: reduced the expression of these cytokines in a dose-dependent manner"
same,liver bile acid profile,liver bile acids; WD-50 group vs WD,did not show any significant changes in liver bile acid profile
same,liver total bile acids and primary bile acids,"liver bile acids; WD-100 group vs WD (WD: reduced total, increased primary bile acids)",showed the opposite trend
